Laboratory results: US11813306B2, “Cyclic tetramer compounds as proprotein convertase subtilisin/kexin type 9 (PCSK9) inhibitors for the treatment of metabolic disorders” (NOVARTIS AG, priority 2018, dated 2023)

Biological target: human PCSK9 (Homo sapiens, UniProt Q8NBP7)
Assay: PCSK9 ligand binding assay (TR-FRET): interference with binding of human PCSK9 to human LDLR
Details: for IC50: Human PCSK9 Alexa Fluor 647 / Human LDLR extracellular domain-Europium Kryptate; for Max % inhibition: efficacy (Amax), 100% = 1 uM unlabeled human PCSK9, 0% = DMSO
Procedure, shortened: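 Read-out was TR-FRET ratio (665 nm over 615 nm, 330 nm excitation) between Alexa Fluor 647-human PCSK9 (16 nM added) and Europium Kryptate-human LDLR ectodomain (4 nM added). Compound and PCSK9 were mixed 30 min before LDLR, then incubated 2 h. Inhibition was normalised to DMSO and unlabelled-PCSK9 controls, giving IC50 and Amax.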

Chain of human PCSK9 (Q8NBP7 153-692): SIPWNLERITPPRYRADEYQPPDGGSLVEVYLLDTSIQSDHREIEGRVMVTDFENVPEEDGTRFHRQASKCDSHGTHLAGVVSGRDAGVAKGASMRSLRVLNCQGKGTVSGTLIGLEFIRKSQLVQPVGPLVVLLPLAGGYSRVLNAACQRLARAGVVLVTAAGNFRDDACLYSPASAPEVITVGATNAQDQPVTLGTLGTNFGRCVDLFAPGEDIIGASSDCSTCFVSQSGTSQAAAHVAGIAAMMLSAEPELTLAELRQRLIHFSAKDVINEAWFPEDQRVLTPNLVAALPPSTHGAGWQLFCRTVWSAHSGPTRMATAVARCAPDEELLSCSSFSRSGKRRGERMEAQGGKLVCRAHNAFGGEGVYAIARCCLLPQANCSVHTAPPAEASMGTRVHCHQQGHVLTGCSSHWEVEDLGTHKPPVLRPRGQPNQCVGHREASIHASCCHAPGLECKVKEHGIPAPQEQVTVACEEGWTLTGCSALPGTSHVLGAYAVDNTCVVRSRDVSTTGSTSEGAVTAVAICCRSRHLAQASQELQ
Chain of human PCSK9 (Q8NBP7 31-152 partner limits assumed): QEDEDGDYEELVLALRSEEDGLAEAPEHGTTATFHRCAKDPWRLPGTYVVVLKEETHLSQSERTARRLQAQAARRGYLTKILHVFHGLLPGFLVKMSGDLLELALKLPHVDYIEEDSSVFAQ

C[C@H]1C(=O)N[C@@H](CO)C(=O)N[C@@]2(Cc3ccc(Cl)cc3)CCCN(C2)C(=O)[C@H](Cc2ccccc2)CC(=O)N1Cc1cc(F)c(Cl)cc1Oc1ccc(-c2cnc(CN(C)C)n2C)cc1 [Compound 54, (3R, 7S, 10S, 13R)-3-benzyl-6-(4-chloro-2-(4-(2-((dimethylamino)methyl)-1-methyl-1H-imidazol-5-yl)phenoxy)-5-fluorobenzyl)-13-(4-chlorobenzyl)-10-(hydroxymethyl)-7-methyl-1,6,9,12-tetraazabicyclo[11.3.1]heptadecane-2,5,8,11-tetraone]
IC50: 0.624 nM
Max % inhibition: 109.4%

C[C@H](NCc1ccc(Cl)cc1Oc1ccc(-c2cnc(CN(C)C)n2C)cc1)C(=O)N[C@H]1COC(=O)C[C@@H](Cc2ccccc2)C(=O)N2CCC[C@@](Cc3ccc(Cl)cc3)(C2)N(C)C1=O [Compound 126, (2S)-N-((3R, 8S, 11R)-3-benzyl-11-(4-chlorobenzyl)-10-methyl-2,5,9-trioxo-6-oxa-1,10-diazabicyclo[9.3.1]pentadecan-8-yl)-2-((4-chloro-2-(4-(2-((dimethylamino)methyl)-1-methyl-1H-imidazol-5-yl)phenoxy)benzyl)amino)propanamide]
IC50: 612 nM
Max % inhibition: 100.1%

C[C@H]1C(=O)N[C@@H](CO)C(=O)N[C@@]2(Cc3ccc(Cl)cc3)CCCN(C2)C(=O)[C@H]([C@@H]2CCc3ccccc32)CC(=O)N1Cc1ccc(C(F)(F)F)cc1Oc1ccc(-c2cnc(CN(C)C)n2C)cc1 [Compound 90]
IC50: 1.71 nM
Max % inhibition: 99.2%

COc1cccc2c1OC[C@@H]2[C@@H]1CC(=O)N(Cc2ccc(Cl)cc2Oc2ccc(-c3cnc(CN4CCCC4)n3C)cc2)[C@@H](C)C(=O)N[C@@H](CO)C(=O)N(C)[C@H](Cc2ccc(Cl)cc2)CN(C)C1=O.Cl [Compound 103, (2S, 5S, 8R, 12S)-1-(4-chloro-2-(4-(1-methyl-2-(pyrrolidin-1-ylmethyl)-1H-imidazol-5-yl)phenoxy)benzyl)-8-(4-chlorobenzyl)-5-(hydroxymethyl)-12-((R)-7-methoxy-2,3-dihydrobenzofuran-3-yl)-2,7,10-trimethyl-1,4,7,10-tetraazacyclotetradecane-3,6,11,14-tetraone]
IC50: 2.08 nM
Max % inhibition: 98.4%

CC[C@@H]1CC(=O)N(Cc2c(OCC(F)(F)F)cc(Cl)cc2Oc2ccc(-c3cnc(CN4CCCC4)n3C)cc2)[C@@H](C)C(=O)N[C@@H](CO)C(=O)N(C)[C@H](Cc2ccc(Cl)cc2)CNC1=O.Cl [Compound 112, (2S, 5S, 8R, 12R)-1-(4-chloro-2-(4-(1-methyl-2-(pyrrolidin-1-ylmethyl)-1H-imidazol-5-yl)phenoxy)-6-(2,2,2-trifluoroethoxy)benzyl)-8-(4-chlorobenzyl)-12-ethyl-5-(hydroxymethyl)-2,7-dimethyl-1,4,7,10-tetraazacyclotetradecane-3,6,11,14-tetraone]
IC50: 13.5 nM
Max % inhibition: 98.8%

COC[C@@H]1NC(=O)[C@H](C)N(Cc2ncc(Cl)cc2Oc2ccc(-c3cnc(CN(C)C)n3C)cc2)C(=O)C[C@@H](Cc2ccccc2)C(=O)N2CCC[C@@](Cc3ccc(Cl)cc3)(C2)NC1=O [Compound 17, (3R, 7S, 10S, 13R)-3-benzyl-6-((5-chloro-3-(4-(2-((dimethylamino)methyl)-1-methyl-1H-imidazol-5-yl)phenoxy)pyridin-2-yl)methyl)-13-(4-chlorobenzyl)-10-(methoxymethyl)-7-methyl-1,6,9,12-tetraazabicyclo[11.3.1]heptadecane-2,5,8,11-tetraone]
IC50: 0.327 nM
Max % inhibition: 102.6%

C[C@H]1C(=O)N[C@@H](CO)C(=O)N(C)[C@H](Cc2ccc(Cl)cc2)CN(C)C(=O)[C@H]([C@H]2CCc3ccccc32)CC(=O)N1Cc1ccc(Cl)cc1Oc1ccc(-c2cnc(CN(C)C)n2C)cc1.Cl [Compound 91, (2S, 5S, 8R, 12S)-1-(4-chloro-2-(4-(2-((dimethylamino)methyl)-1-methyl-1H-imidazol-5-yl)phenoxy)benzyl)-8-(4-chlorobenzyl)-12-((R)-2,3-dihydro-1H-inden-1-yl)-5-(hydroxymethyl)-2,7,10-trimethyl-1,4,7,10-tetraazacyclotetradecane-3,6,11,14-tetraone]
IC50: 1.83 nM
Max % inhibition: 104.8%

Cc1cccc(C[C@@H]2CC(=O)N(Cc3ccc(Cl)cc3Oc3ccc(-c4cnc(CN(C)C)n4C)cc3)[C@@H](C)C(=O)N[C@@H](CO)C(=O)N[C@@]3(Cc4ccc(Cl)cc4)CCCN(C3)C2=O)n1 [Compound 41, (3R, 7S, 10S, 13R)-6-(4-chloro-2-(4-(2-((dimethylamino)methyl)-1-methyl-1H-imidazol-5-yl)phenoxy)benzyl)-13-(4-chlorobenzyl)-10-(hydroxymethyl)-7-methyl-3-((6-methylpyridin-2-yl)methyl)-1,6,9,12-tetraazabicyclo[11.3.1]heptadecane-2,5,8,11-tetraone]
IC50: 0.556 nM
Max % inhibition: 105.9%

C[C@H]1C(=O)N[C@@H](CO)C(=O)N[C@@]2(Cc3ccc(Cl)cc3)CCCN(C2)C(=O)[C@H](CC2CC2)CC(=O)N1Cc1c(F)cc(Cl)cc1Oc1ccc(-c2cnc(CN(C)C)n2C)cc1 [Compound 145, (3R, 7S, 10S, 13R)-6-(4-chloro-2-(4-(2-((dimethylamino)methyl)-1-methyl-1H-imidazol-5-yl)phenoxy)-6-fluorobenzyl)-13-(4-chlorobenzyl)-3-(cyclopropylmethyl)-10-(hydroxymethyl)-7-methyl-1,6,9,12-tetraazabicyclo[11.3.1]heptadecane-2,5,8,11-tetraone]
IC50: 0.95 nM
Max % inhibition: 112.3%

COC[C@@H]1NC(=O)[C@H](C)N(Cc2ccc(Cl)cc2Oc2ccc(-c3cnc(CNC(C)(C)C)n3C)cc2)C(=O)C[C@@H](Cc2ccccc2)C(=O)N2CCC[C@@](Cc3ccc(Cl)cc3)(C2)NC1=O [Compound 149, (3R, 7S, 10S, 13R)-3-benzyl-6-(2-(4-(2-((tert-butylamino)methyl)-1-methyl-1H-imidazol-5-yl)phenoxy)-4-chlorobenzyl)-13-(4-chlorobenzyl)-10-(methoxymethyl)-7-methyl-1,6,9,12-tetraazabicyclo[11.3.1]heptadecane-2,5,8,11-tetraone]
IC50: 0.75 nM
Max % inhibition: 111.4%

COC[C@@H]1NC(=O)[C@H](C)N(Cc2ccc(Cl)cc2Oc2ccc(-c3cnc(CN4CCCC4)n3C)cc2)C(=O)C[C@@H](Cc2ccccc2)C(=O)NC[C@@H](Cc2ccc(Cl)cc2)N(C)C1=O.Cl [Compound 92, (2S, 5S, 8R, 12R)-12-benzyl-1-(4-chloro-2-(4-(1-methyl-2-(pyrrolidin-1-ylmethyl)-1H-imidazol-5-yl)phenoxy)benzyl)-8-(4-chlorobenzyl)-5-(methoxymethyl)-2,7-dimethyl-1,4,7,10-tetraazacyclotetradecane-3,6,11,14-tetraone]
IC50: 2.37 nM
Max % inhibition: 104.1%

C[C@H]1C[C@H]([C@@H]2CC(=O)N(Cc3ccc(Cl)cc3Oc3ccc(-c4cnc(CN5CCCC5)n4C)cc3)[C@@H](C)C(=O)N[C@@H](CO)C(=O)N(C)[C@H](Cc3ccc(Cl)cc3)CN(C)C2=O)c2ccccc21.Cl [Compound 93, (2S, 5S, 8R, 12S)-1-(4-chloro-2-(4-(1-methyl-2-(pyrrolidin-1-ylmethyl)-1H-imidazol-5-yl)phenoxy)benzyl)-8-(4-chlorobenzyl)-5-(hydroxymethyl)-2,7,10-trimethyl-12-((1R, 3S)-3-methyl-2,3-dihydro-1H-inden-1-yl)-1,4,7,10-tetraazacyclotetradecane-3,6,11,14-tetraone]
IC50: 1.4 nM
Max % inhibition: 103.0%

C[C@H]1C(=O)N[C@@H](CO)C(=O)N[C@@]2(Cc3ccc(Cl)cc3)CCCN(C2)C(=O)[C@H](CC(F)(F)F)CC(=O)N1Cc1c(F)cc(Cl)cc1Oc1ccc(-c2cnc(CN3CCC3)n2C)cc1 [Compound 28, (3S, 7S, 10S, 13R)-6-(2-(4-(2-(azetidin-1-ylmethyl)-1-methyl-1H-imidazol-5-yl)phenoxy)-4-chloro-6-fluorobenzyl)-13-(4-chlorobenzyl)-10-(hydroxymethyl)-7-methyl-3-(2,2,2-trifluoroethyl)-1,6,9,12-tetraazabicyclo[11.3.1]heptadecane-2,5,8,11-tetraone]
IC50: 0.612 nM
Max % inhibition: 114.2%

CNCc1ncc(-c2ccc(Oc3cc(Cl)ccc3CN3C(=O)C[C@@H](Cc4ccccc4)C(=O)N4CCC[C@@](Cc5ccc(Cl)cc5)(C4)NC(=O)[C@H](CO)NC(=O)[C@@H]3C)cc2)n1C [Compound 150, (3R, 7S, 10S, 13R)-3-benzyl-6-(4-chloro-2-(4-(1-methyl-2-((methylamino)methyl)-1H-imidazol-5-yl)phenoxy)benzyl)-13-(4-chlorobenzyl)-10-(hydroxymethyl)-7-methyl-1,6,9, 12-tetraazabicyclo[11.3.1]heptadecane-2,5,8,11-tetraone]
IC50: 0.85 nM
Max % inhibition: 105.4%

C[C@H]1C(=O)N[C@@H](CO)C(=O)N[C@@]2(Cc3ccc(Cl)cc3)CCCN(C2)C(=O)[C@H](CC(F)(F)F)CC(=O)N1Cc1c(F)cc(Cl)cc1Oc1ccc(-c2cnc(CNC3CCC3)n2C)cc1 [Compound 5, (3S, 7S, 10S, 13R)-6-(4-chloro-2-(4-(2-((cyclobutylamino)methyl)-1-methyl-1H-imidazol-5-yl)phenoxy)-6-fluorobenzyl)-13-(4-chlorobenzyl)-10-(hydroxymethyl)-7-methyl-3-(2,2,2-trifluoroethyl)-1,6,9,12-tetraazabicyclo[11.3.1]heptadecane-2,5,8,11-tetraone]
IC50: 0.4 nM
Max % inhibition: 101.9%
